This is an account of results in patent US20170304355A1, “COMPOSITIONS AND METHODS OF USE THEREOF” (priority 2014, published 2017).

Where two headings read alike, the source gives them in different places.

The test system of one assay is MRSA strain SA5. Briefly: Minimal Biofilm Inhibitory Concentration (MBIC) assay. It counts as cell-based, Staphylococcus aureus. On the procedure:
(§1) Each isolate was taken from the −80° C. freezer stock and grown for approximately 20 hours in LB Broth at 37° C. shaking water bath. […] The antibiotics and PAAG (22.4% functionalization, 36.9 kDa, 89.74 DDA, 1.63 PDI) were prepared similar to a checkerboard assay (2× concentration to accommodate addition of culture) in MH broth, in a sterile flat-bottomed 96-well plate. For MRSA strain SA5, the PAAG concentrations tested were 0-128 ug/ml. The vancomycin concentrations tested were 0-4 ug/ml. […] The tobramycin concentrations tested were 0-4 ug/ml. Plates were incubated in a 37° C. incubator.
(§2) The fractional inhibitory concentration (FIC) was calculated as; FIC calculation: […]
(§3) and the FIC relationship was defined as; Synergy: FIC≦0.5; Additive: 0.5<FIC≦1.0; or Indifferent: FIC>1.0.

Assay [1] deals with P. aeruginosa strain SUS116. Described as above. It counts as cell-based. The conditions noted are these: for MBIC Tobramycin: alone. On the procedure: as §1, §2, §3
The test system of assay [2] is clinical isolates of P. aeruginosa. Kind of assay: Checkerboard assay, PAAG and tobramycin. It counts as cell-based. The following applies: Pseudomonas aeruginosa. On the procedure:
Two independent checkerboard assays screened 64 unique combinations of antimicrobial concentrations in duplicate. […] Bacteria were incubated at 37° C. for 20 hours. The MIC was determined as the lowest concentration with no visible bacterial growth observed.

Assay [3] concerns P. aeruginosa strain PA01. Briefly: Checkerboard assay, various PAAG's and tobramycin. It counts as cell-based. The following applies: Pseudomonas aeruginosa.
The next assay relates to MRSA. Briefly: Broth microdilution checkerboard assay, PAAG and oxacillin. It counts as cell-based, Staphylococcus aureus. The conditions noted are these: for MIC: Staphylococcus aureus, MRSA. The text has this: (§4) Checkerboard and time kill bactericidal studies of mupriocin, methicillin-resistant Staphylococcus aureus strains 2-4C and 2-9A were completed as part of the synergy studies to evaluate potentiation of […] by PAAG (25% functionalized, 43 kDa). Synergistic relationships between PAAG and oxacillin were examined in vitro using the broth microdilution checkerboard assay in 96-well microtiter plates. Serial two-fold dilutions of PAAG and oxacillin were placed in each well with approximately 1×10^5 CFU/ml of S. aureus. Each plate was incubated 20 hours. The MIC was determined as the lowest concentration where no visible bacterial growth was observed. […] Controls for bacterial growth and sterility were included. The FIC for each strain was calculated. The FIC is an interaction coefficient indicating whether the combined inhibitory/bacteristatic effect of drugs is synergistic (FIC of 0.5 or less), additive ([…]), or antagonistic (FIC>4). The FIC is =A+B, where: A=(MIC of X with Y)/(MIC of drug X alone) and B=(MIC of Y with X)/(MIC of drug Y alone). The time-kill assay (vCFU) was performed using the microdilution technique. Approximately 1×10^5 CFU/ml of each bacteria tested was tested against mupriocin alone and in combination. Concentrations of PAAG tested were ½-⅛×MIC. The vCFU was determined after 24 hours treatment using the microtiter technique (8).
(In broth dilution the organism is exposed to a series of concentrations in liquid medium.)

The subject of assay [4] is mupirocin-resistant MRSA strains 2-4C and 2-9A. Kind of assay: Time-kill assay (vCFU), PAAG and mupirocin. It counts as cell-based, Staphylococcus aureus. The following applies: 24-hours.
Description: as §4

`CN[C@H](CC(C)C)C(=O)N[C@H]1C(=O)N[C@@H](CC(N)=O)C(=O)N[C@H]2C(=O)N[C@H]3C(=O)N[C@H](C(=O)N[C@H](C(=O)O)c4cc(O)cc(O)c4-c4cc3ccc4O)[C@H](O)c3ccc(c(Cl)c3)Oc3cc2cc(c3O[C@@H]2O[C@H](CO)[C@@H](O)[C@H](O)[C@H]2O[C@H]2C[C@](C)(N)[C@H](O)[C@H](C)O2)Oc2ccc(cc2Cl)[C@H]1O` [Vancomycin]: the “MBIC Vancomycin” value in the assay on MRSA strain SA5 (alone) came out at 2 µg/mL. Besides, the “MBIC Vancomycin (with PAAG)” value in the assay with MRSA strain SA5 (in combination with PAAG) is 1 µg/mL.
A word on the MIC: it is the smallest concentration in the dilution series that meets the test's criterion for growth inhibition. In the case of `NC[C@H]1O[C@H](O[C@H]2[C@H](O)[C@@H](O[C@H]3O[C@H](CO)[C@@H](O)[C@H](N)[C@H]3O)[C@H](N)C[C@@H]2N)[C@H](N)C[C@@H]1O` [Tobramycin], the “MBIC Tobramycin” value in assay [1] (PAAG and tobramycin table (TABLE 2)) turned out to be 6.25 µg/mL; in assay [1] (column of the PAAG and aztreonam table (TABLE 1)), 2 µg/mL. Further, in assay [1] (in combination with PAAG), the “MBIC Tobramycin (with PAAG)” value is 2 µg/mL. The MIC in assay [2] (strain AMT-32-4, alone, read-out: MIC Tobramycin) was 0.31 µg/mL; in assay [2] (strain AMT-32-4, read-out: MIC Tobramycin (with PAAG)), 0.13 µg/mL; in assay [2] (strain MR29, alone, read-out: MIC Tobramycin) it was 0.31 µg/mL; in assay [2] (strain MR29, read-out: MIC Tobramycin (with PAAG)), 0.25 µg/mL; in assay [2] (strain MR 51, alone, read-out: MIC Tobramycin), 0.31 µg/mL; in assay [2] (strain MR 51, read-out: MIC Tobramycin (with PAAG)), 0.13 µg/mL. The MIC came to 0.31 µg/mL in assay [2] (strain PA01, alone, read-out: MIC Tobramycin); 0.13 µg/mL in assay [2] (strain PA01, read-out: MIC Tobramycin (with PAAG)); 1.25 µg/mL in assay [2] (strain SUS 116, alone, read-out: MIC Tobramycin); 0.13 µg/mL in assay [2] (strain SUS 116, read-out: MIC Tobramycin (with PAAG)); 1 µg/mL in assay [3] (PA01, alone, assay run with PAAG^1, read-out: MIC Tobramycin); 0.5 µg/mL in assay [3] (PA01, alone, assay run with PAAG^2, read-out: MIC Tobramycin). Also, the MIC is 0.5 µg/mL in assay [3] (PA01, alone, assay run with PAAG^3, read-out: MIC Tobramycin); 0.031 µg/mL in assay [3] (PA01, with PAAG^1 (27%, 32 kDa), read-out: MIC Tobramycin (with PAAG)); 0.031 µg/mL in assay [3] (PA01, with PAAG^2 (31%, 54 kDa), read-out: MIC Tobramycin (with PAAG)); 0.063 µg/mL in assay [3] (PA01, with PAAG^3 (25%, 40 kDa), read-out: MIC Tobramycin (with PAAG)).
As to `Cc1onc(-c2ccccc2)c1C(=O)N[C@@H]1C(=O)N2[C@@H]1SC(C)(C)[C@@H]2C(=O)O` [OXA, oxacillin], the MIC in the assay on MRSA (all strains, alone, read-out: MIC oxacillin) was at least 4 µg/mL; with MRSA (strain 2-1A, alone, read-out: MIC OXA) it was 8 µg/mL; in the assay with MRSA (strain 2-1A, read-out: MIC OXA with PAAG) it was 1 µg/mL; with MRSA (strain 2-4C, alone, read-out: MIC OXA) it was 16 µg/mL; in the assay on MRSA (strain 2-4C, read-out: MIC OXA with PAAG), 2 µg/mL; in the assay on MRSA (strain 2-9A, alone, read-out: MIC OXA), 8 µg/mL. Moreover, the MIC was 0.5 µg/mL with MRSA (strain 2-9A, read-out: MIC OXA with PAAG); 4 µg/mL with MRSA (strain MW-2, alone, read-out: MIC OXA); 1 µg/mL in the assay with MRSA (strain MW-2, read-out: MIC OXA with PAAG); 4 µg/mL with MRSA (strain SA05, alone, read-out: MIC OXA); 1 µg/mL in the assay on MRSA (strain SA05, read-out: MIC OXA with PAAG). Further, the “MIC of oxacillin after addition of PAAG (susceptible range)” value with MRSA (all strains, PAAG at 2, 8 or 16 μg/ml) is at least 2 µg/mL.
On to `C/C(=C\C(=O)OCCCCCCCCC(=O)O)C[C@@H]1OC[C@H](C[C@@H]2O[C@H]2[C@@H](C)[C@H](C)O)[C@@H](O)[C@H]1O` [Mup, mupirocin], for which the “Log10 reduction (CFU/ml)” value in assay [4] (strain 2-4C, Mup 8 μg/ml alone) came to 0 Log10 CFU/ml; in assay [4] (strain 2-9A, Mup 4 μg/ml alone), 0 Log10 CFU/ml.
With `C[C@H]1[C@H](NC(=O)/C(=N\OC(C)(C)C(=O)O)c2csc(N)n2)C(=O)N1S(=O)(=O)O` [Aztreonam], the “MBIC Aztreonam (with PAAG)” value in assay [1] (in combination with PAAG) is 0.06 µg/mL.
